Series [1] deals with T1, CDK9/CycT1 (Homo sapiens (Human), UniProt P50750). The series can be described thus: CDK9/CycT1 kinase assay (Method 1a). As to conditions: for Selectivity CDK9/CDK2: derived from Methods 1a. and 2.; for IC50: 10 μM ATP. It is filed as biochemical.
The nature of series [2]: In vitro metabolic stability in rat hepatocytes (Method 5). It counts as in vitro ADME, Han Wistar rat. As to conditions: 1 μM test compound. The procedure:
5. Investigation of In Vitro Metabolic Stability in Rat Hepatocytes
Hepatocytes from Han Wistar rats were isolated via a 2-step perfusion method. After perfusion, the liver was carefully removed from the rat: the liver capsule was opened and the hepatocytes were gently shaken out into a Petri dish with ice-cold Williams medium E (purchased from Sigma Aldrich Life Science, St Louis, Mo.). The resulting cell suspension was filtered through sterile gaze in 50 ml falcon tubes and centrifuged at 50×g for 3 min at room temperature. The cell pellet was resuspended in 30 ml WME and centrifuged through a Percoll® gradient for 2 times at 100×g. The hepatocytes were washed again with Williams' medium E (WMA) and resuspended in medium containing 5% Fetal calf serum (FCS, purchased from Invitrogen, Auckland, NZ). Cell viability was determined by trypan blue exclusion.
For the metabolic stability assay liver cells were distributed in WME containing 5% FCS to glass vials at a density of 1.0×10^6 vital cells/ml. The test compound was added to a final concentration of 1 μM. During incubation, the hepatocyte suspensions were continuously shaken and aliquots were taken at 2, 8, 16, 30, 45 and 90 min, to which equal volumes of cold acetonitrile were immediately added. Samples were frozen at −20° C. over night, after subsequently centrifuged for 15 minutes at 3000 rpm and the supernatant was analyzed with an Agilent 1200 HPLC-system with LCMS/MS detection.
The half-life of a test compound was determined from the concentration-time plot. From the half-life the intrinsic clearances were calculated. Together with the additional parameters liver blood flow, amount of liver cells in vivo and in vitro.

Series [3] concerns HeLa, human cervical tumour cells. The series can be described thus: Proliferation assay, HeLa (Method 3). As to conditions: 4 days, crystal violet, read-out: Inhibition of HeLa cell proliferation IC50. It counts as cell-based. A digest of the protocol: (§1)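 Four-day compound treatment (0.001–10 μM, 0.5% DMSO final) began 24 h after seeding. Readout: crystal violet, 595 nm, referenced to a zero-point plate and vehicle wells.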

The test system of series [4] is A2780, human ovarian carcinoma cells. The series can be described thus: Proliferation assay, A2780 (Method 3). It is filed as cell-based. As to conditions: A2780, 4 days, crystal violet, read-out: Inhibition of A2780 cell proliferation IC50. A digest of the protocol: as §1
Series [5] deals with MOLM-13 human acute myeloid leukemia cells. The series can be described thus: Proliferation assay, MOLM-13 (Cell Titre-Glo, Method 3). It counts as cell-based. As to conditions: MOLM-13, 72-hour exposure, read-out: Inhibition of MOLM-13 cell proliferation IC50. The procedure:
Non-adherent MOLM-13 human acute myeloid leukemia cells (DSMZ ACC 554) were seeded at a density of 5,000 cells/well in a 96-well multititer plate in 100 μL of growth medium supplemented 10% fetal calf serum. After 24 hours, cell viability of one plate (zero-point plate) was determined with the Cell Titre-Glo Luminescent Cell Viability Assay (Promega), while 50 μL of test compound containing medium was added to the wells of the other plates (final concentrations in the range of 0.001-10 μM and DMSO controls; the final concentration of the solvent dimethyl sulfoxide was 0.5%). Cell viability was assessed after 72-hour exposure with the Cell Titre-Glo Luminescent Cell Viability Assay (Promega).

Series [6] deals with B16F10, mouse melanoma cells. The series can be described thus: Proliferation assay, B16F10 (Method 3). The following applies: B16F10, 4 days, crystal violet, read-out: Inhibition of B16F10 cell proliferation IC50. It counts as cell-based. The procedure:
(§2) After 24 hours, the cells of one plate (zero-point plate) were stained with crystal violet (see below), while the medium of the other plates was replaced by fresh culture medium (200 μl), to which the test substances were added in various concentrations (0 μM, as well as in the range of 0.001-10 μM; the final concentration of the solvent dimethyl sulfoxide was 0.5%). The cells were incubated for 4 days in the presence of test substances. Cell proliferation was determined by staining the cells with crystal violet: the cells were fixed by adding 20 μl/measuring point of an 11% glutaric aldehyde solution for 15 minutes at room temperature. After three washing cycles of the fixed cells with water, the plates were dried at room temperature. The cells were stained by adding 100 μl/measuring point of a 0.1% crystal violet solution (pH 3.0). After three washing cycles of the stained cells with water, the plates were dried at room temperature. The dye was dissolved by adding 100 μl/measuring point of a 10% acetic acid solution. The extinction was determined by photometry at a wavelength of 595 nm. The change of cell number, in percent, was calculated by normalization of the measured values to the extinction values of the zero-point plate (=0%) and the extinction of the untreated (0 μm) cells (=100%).

Series [7] deals with Caco-2, human colorectal carcinoma cells. The series can be described thus: Proliferation assay, Caco-2 (Method 3). It is filed as cell-based. The following applies: Caco-2, 4 days, crystal violet, read-out: Inhibition of Caco-2 cell proliferation IC50. The procedure: as §2
For series [8], the system named is NCI-H460, human non-small cell lung carcinoma cells. The series can be described thus: Proliferation assay, NCI-H460 (Method 3). It counts as cell-based. As to conditions: NCI-H460, 4 days, crystal violet, read-out: Inhibition of H460 cell proliferation IC50. The procedure: as §2
Series [9] deals with HeLa-MaTu-ADR, multidrug-resistant human cervical carcinoma cells. The series can be described thus: Proliferation assay, HeLa-MaTu-ADR (Method 3). It is filed as cell-based. As to conditions: 4 days, crystal violet, read-out: Inhibition of HeLa-MaTu-ADR cell proliferation IC50. On the procedure:
as §2

The subject of series [10] is DU 145, hormone-independent human prostate carcinoma cells. The series can be described thus: Proliferation assay, DU 145 (Method 3). It is filed as cell-based. As to conditions: DU145, 4 days, crystal violet, read-out: Inhibition of DU145 cell proliferation IC50. The procedure:
as §2

In another series the target is CDK2/CycE (Homo sapiens (Human), UniProt P24941). Kind of series: CDK2/CycE kinase assay (Method 2). The following applies: 10 μM ATP. It is filed as biochemical.
For series [11], the target named is T1, CDK9/CycT1. Kind of series: CDK9/CycT1 high ATP kinase assay (Method 1b). It is filed as biochemical. The following applies: 2 mM ATP. On the procedure:
1b. CDK9/CycT1 High ATP Kinase Assay
CDK9/CycT1-inhibitory activity of compounds of the present invention at a high ATP concentration after preincubation of enzyme and test compounds was quantified employing the CDK9/CycT1 TR-FRET assay as described in the following paragraphs.
Recombinant full-length His-tagged human CDK9 and CycT1, expressed in insect cells and purified by Ni-NTA affinity chromatography, were purchase from Invitrogen (Cat. No PV4131). As substrate for the kinase reaction biotinylated peptide biotin-Ttds-[…] (C-terminus in amid form) was used which can be purchased e.g. form the company JERINI peptide technologies (Berlin, Germany).
For the assay 50 nl of a 100 fold concentrated solution of the test compound in DMSO was pipetted into a black low volume 384 well microtiter plate (Greiner Bio-One, Frickenhausen, Germany), 2 μl of a solution of CDK9/CycT1 in aqueous assay buffer [50 mM Tris/HCl pH 8.0, 10 mM MgCl2, 1.0 mM dithiothreitol, 0.1 mM sodium ortho-vanadate, 0.01% (v/v) Nonidet-P40 (Sigma)] were added and the mixture was incubated for 15 min at 22° C. to allow pre-binding of the test compounds to the enzyme before the start of the kinase reaction. […] The concentration of CDK9/CycT1 was adjusted depending of the activity of the enzyme lot and was chosen appropriate to have the assay in the linear range, typical concentrations were in the range of 0.5 μg/ml.
The resulting mixture was incubated 1 h at 22° C. to allow the formation of complex between the phosphorylated biotinylated peptide and the detection reagents. Subsequently the amount of phosphorylated substrate was evaluated by measurement of the resonance energy transfer from the Eu-chelate to the streptavidine-XL. Therefore, the fluorescence emissions at 620 nm and 665 nm after excitation at 350 nm was measured in a HTRF reader, e.g. a Rubystar (BMG Labtechnologies, Offenburg, Germany) or a Viewlux (Perkin-Elmer). The ratio of the emissions at 665 nm and at 622 nm was taken as the measure for the amount of phosphorylated substrate.

Structures are written as SMILES. Where two headings read alike, the source gives them in different places.

T1 sequence (P50750 whole entry): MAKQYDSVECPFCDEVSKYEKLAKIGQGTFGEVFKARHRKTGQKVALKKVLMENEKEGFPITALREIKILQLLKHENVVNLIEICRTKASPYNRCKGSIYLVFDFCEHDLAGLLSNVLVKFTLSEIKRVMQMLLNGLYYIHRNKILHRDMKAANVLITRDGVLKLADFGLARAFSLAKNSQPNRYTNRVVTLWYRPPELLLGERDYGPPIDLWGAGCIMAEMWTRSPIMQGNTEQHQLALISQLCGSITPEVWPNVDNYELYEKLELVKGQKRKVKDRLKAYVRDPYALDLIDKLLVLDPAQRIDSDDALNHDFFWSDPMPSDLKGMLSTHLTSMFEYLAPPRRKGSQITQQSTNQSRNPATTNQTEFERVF
T1 sequence (O60563 whole entry partner): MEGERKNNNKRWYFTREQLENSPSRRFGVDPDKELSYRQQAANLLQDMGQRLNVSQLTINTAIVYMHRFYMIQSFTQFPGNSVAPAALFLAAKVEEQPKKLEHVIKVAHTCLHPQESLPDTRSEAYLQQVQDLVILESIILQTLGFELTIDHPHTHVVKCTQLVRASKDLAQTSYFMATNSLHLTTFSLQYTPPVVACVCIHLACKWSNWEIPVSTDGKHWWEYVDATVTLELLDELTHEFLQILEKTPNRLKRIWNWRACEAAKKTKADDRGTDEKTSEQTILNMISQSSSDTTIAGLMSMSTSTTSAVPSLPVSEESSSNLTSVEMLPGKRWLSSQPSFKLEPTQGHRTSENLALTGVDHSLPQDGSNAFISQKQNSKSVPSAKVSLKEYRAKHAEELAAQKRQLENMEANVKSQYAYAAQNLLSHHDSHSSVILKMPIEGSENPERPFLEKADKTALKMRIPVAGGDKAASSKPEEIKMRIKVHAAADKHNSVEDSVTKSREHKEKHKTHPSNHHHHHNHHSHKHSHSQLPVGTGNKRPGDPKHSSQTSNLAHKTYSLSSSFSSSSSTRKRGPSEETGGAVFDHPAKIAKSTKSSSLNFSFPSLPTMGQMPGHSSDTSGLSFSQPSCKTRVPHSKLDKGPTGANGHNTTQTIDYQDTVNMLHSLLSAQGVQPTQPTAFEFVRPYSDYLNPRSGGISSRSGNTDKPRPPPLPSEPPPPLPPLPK

`CS(=N)(=O)Cc1cc(Nc2ncc(F)c(-c3ccc(F)cc3F)n2)cc(C(F)(F)F)c1` (single isomer, unassigned) [Example 5, 4-(2,4-Difluorophenyl)-5-fluoro-N-{3-[(S-methylsulfonimidoyl)methyl]-5-(trifluoromethyl)phenyl}pyrimidin-2-amine]: the “Selectivity CDK9/CDK2” value on CDK9/CycT1 [1] worked out at 72. In series [2], the “maximal calculated oral bioavailability (Fmax) based on stability data in rat Hepatocytes” value (“maximal calculated oral bioavailability” below) is given as 77%. Moreover, the IC50 came to 840 nM in series [3] (Homo sapiens, 96 h); 95 nM in series [4]; 316 nM in series [5] (Homo sapiens, MOLM-13, 72 h).

For the compound `COc1cc(CS(C)(=O)=NC#N)cc(Nc2ncc(F)c(-c3ccc(F)cc3F)n2)c1` (racemic) [Example 20, (rac)-[(3-{[4-(2,4-Difluorophenyl)-5-fluoropyrimidin-2-yl]amino}-5-methoxybenzyl)(methyl)oxido-λ^6-sulfanylidene]cyanamide], the IC50 in [3] (Homo sapiens, 96 h) was found to be 320 nM; in series [6] (Mus musculus, B16-F10, 96 h), 321 nM; in series [7] (Homo sapiens, Caco-2, 96 h) it was 344 nM; in series [8] (Homo sapiens, NCI-H460, 96 h) it was 384 nM; in [9] (Homo sapiens, 96 h), 330 nM; in series [10] (Homo sapiens, DU-145, 96 h) it was 340 nM. Further, the IC50 on CDK2/CycE was 230 nM.

As for `CS(=O)(Cc1cc(Nc2ncc(F)c(-c3ccc(F)cc3F)n2)cc(S(F)(F)(F)(F)F)c1)=NC(N)=O` (single isomer, unassigned) [Example 34, 1-{[3-{[4-(2,4-Difluorophenyl)-5-fluoropyrimidin-2-yl]amino}-5-(pentafluoro-λ^6-sulfanyl)benzyl](methyl)oxido-λ^6-sulfanylidene}urea], the IC50 was 4 nM on CDK9/CycT1 [1]; 172 nM in series [3]; 323 nM in series [6]; 202 nM in series [7]; 317 nM in series [8]; 99 nM in series [4]. In addition, the IC50 in [9] came to 134 nM; in series [10], 142 nM; in series [5], 39 nM; on CDK9/CycT1 [11], 11 nM. The “maximal calculated oral bioavailability” value in [2] is given as 90%.

In the case of `CS(=N)(=O)Cc1cc(Nc2ncc(F)c(-c3ccc(F)cc3F)n2)cc(C(F)(F)F)c1` (single isomer, unassigned) [Example 6, 4-(2,4-Difluorophenyl)-5-fluoro-N-{3-[(S-methylsulfonimidoyl)methyl]-5-(trifluoromethyl)phenyl}pyrimidin-2-amine], the “Selectivity CDK9/CDK2” value on CDK9/CycT1 [1] is on record as 50. Besides, in [2], the “maximal calculated oral bioavailability” value is listed as 71%. The IC50 in series [3] was 950 nM; in series [4], 300 nM; in series [5] it was 374 nM.

Turning to `CS(=N)(=O)Cc1cc(Nc2ncc(F)c(-c3ccc(F)cc3F)n2)cc(S(F)(F)(F)(F)F)c1` (single isomer, unassigned) [Example 31, 4-(2,4-Difluorophenyl)-5-fluoro-N-{3-[(S-methylsulfonimidoyl)methyl]-5-(pentafluoro-λ^6-sulfanyl)phenyl}pyrimidin-2-amine], the IC50 against CDK9/CycT1 [1] worked out at 54 nM; in series [3] (Homo sapiens, 96 h) it was 501 nM; in series [4] (Homo sapiens, A2780, 96 h) it was 279 nM; in series [5] (Homo sapiens, MOLM-13, 72 h), 281 nM; at CDK9/CycT1 [11], 7 nM; against CDK2/CycE, 890 nM. The “Selectivity CDK9/CDK2” value on CDK9/CycT1 [1] worked out at 16.

(Values after US9499492B2, “4-(ortho)-fluorophenyl-5-fluoropyrimidin-2-yl amines containing a sulfoximine group” (BAYER PHARMA AKTIENGESELLSCHAFT, priority 2012, dated 2016).)
